Assay results reported in publication PMC5019189 (European journal of pharmacology, 2015).
Like-named read-outs stand apart in the source and are kept apart here.

Experiments:
[1] = test system: TNF-α-induced VCAM-1 protein expression; assay: ELISA of 24 h TNF-α-induced VCAM-1 protein expression on HUVEC; type: cell-based, human; conditions: for inhibition of the VCAM-1 protein expression elicited by TNF-α: 50 μM compound
[2] = test system: abnormal MHC gene expression in thyroid epithelial cells; conditions: ref Giuliani et al., 2010; cited from earlier work
[3] = test system: TNF-α-induced VCAM-1 mRNA expression; conditions: human aortic endothelial cells, Northern blot analysis; ref Dagia et al., 2004; cited from earlier work
[4] = test system: HUVEC; assay: Cell viability; type: cell-based, human; conditions: 24 h, linear regression, mean of three experiments

Row | SMILES | inhibition of the VCAM-1 protein expression elicited by TNF-α ([1]; 24 h TNF-α) | IC50 ([1]; read-out: IC50, concentration of compound needed to inhibit 50% of the VCAM-1 expression, 10 ng/ml TNF-α, 24 h, ELISA, linear regression, average of at least three experiments) | suppression of abnormal MHC gene expression compared to MMI [2] | effect on 24 h TNF-α-induced VCAM-1 mRNA expression [3] | inhibition of VCAM-1 protein expression ([1]; 70 μM compound, 24 h TNF-α) | IC50 ([1]; Homo sapiens, 24 h, read-out: IC50, concentration of compound needed to inhibit 50% of the VCAM-1 expression) | TC50, concentration of compound needed to reduce the MTS signal by 50% of the control value [4]
1 | Cn1c(-c2ccccc2)c[nH]c1=S [1a, 4-phenyl-3-methyl-1, 3 imidazole-2-thione] | over 40% | 66 µM | 70–100 fold | inhibits | – | – | –
2 | Cn1cc[nH]c1=S [MMI, 3-methyl-1, 3 imidazole-2 thione] | no inhibitory effect | – | – | – | little, if any, inhibition | 1140 µM | 2450 µM
